In patent US20060276412A1, “METHODS AND COMPOSITIONS FOR MANAGING PSYCHOTIC DISORDERS” (priority 2005, published 2006):
Several values for one entry are separate records, joined by “and”; a condition that tells them apart may be missing. Equal entries are not always repeated. Where two headings read alike, the source gives them in different places.

What was measured:
[1] = patients presenting with primary obesity; cited from earlier work
[2] = tested on: serotonin (5HT) in hypothalamus; assay: Brain microdialysis: serotonin in hypothalamus; type: in vivo, rats; settings: 25 mg/kg zonisamide
Description: (§1) 62 adult Sprague-Dawley male rats (Harland, Indianapolis) weighing 300-350 g were used in the following studies. The rats were quarantined for at least five days in group housing. Following the quarantine procedure, rats were maintained in individual cages. For surgical implantation with intracerebral guides, guides were inserted directly above either the hypothalamus (HT) (31 rats), or the medial prefrontal cortex (mPFC) (31 rats). Stereotaxic coordinates (Paxinos and Watson, 1986) provided below were used to position the guide cannulae and/or probes: Animals were anesthetiszed according using standard procedures. The head of each animal was shaved from the front of the eyes to the back of the skull. Shaved areas were disinfected, and the animals were placed in stereotaxic frame ear bars. The animal was aligned with the incisor bar. The animal's scalp was cut with a sharp #15 scalpel blade. If the bone began to bleed, bone wax was applied to the incision. Periosteal tissue was cleaned from the skull to the lateral ridges with a cotton swab, and clamps were used to pull the skin out of the way. The probe or guide was placed in the clamp, such that the angled outlet cannula of the microdialysis probe was angled towards the animal's tail. The target coordinates were calculated, and this point was marked on the skull. Two holes in opposing skull bones were drilled for bone anchor screws and thread screws. The dura was torn away with a sharp, pointed object. The guide cannulae were placed at the dorsal/ventral zero point. […] Using dental acrylic, the cannulae were cemented to the bone anchor screws. The cement was allowed to harden and the rodent was removed from the stereotaxic frame. The cranial and caudal aspects of the incision were sutured. The animals were allowed to recover for three to five days. Stylets in the guides were replaced with dialysis probes on the evening prior to study to allow for animal acclimation and to reestablish the integrity of the blood brain barrier. […] Rats were weighed pre-surgery, every 1-2 days post-surgery until time of microdialysis, and postmortem. Microdialysis probes used in the experiments described below were first soaked in standard Ringer's perfusion medium for 30 minutes. Inlet and outlet tubing was connected to each probe using flanged connectors. The outlet tubing was connected to a fraction collector, and the inlet was connected to and […] syringe drive. The probes were immersed in fresh Ringer's solution and flushed with Ringer's perfusion medium at a rate of 2 μl/min for 1 hour. The probe was then transferred to the intracerebral guide on the rat's skull. […] Water was added to obtain a final concentration of 0.3 mg/ml. […] Zonisamide was dissolved in DMSO. […] The final concentration of zonisamide was 7.5 mg/ml. The drug solution was maintained at 37° C. prior to injection. The rats were divided into ten test groups. Five animals were analyzed for each test group. The test groups were as follows: For the microdialysis experiments, perfusion consisted of 2 μl/min delivery of sterile standard Ringer's solution for intervals of 20 minutes. Final collection volumes were 40 μl. 30 μl samples were analyzed for each analyte: DA, NE, 5HT. 12 pre-dose samples and 12 post dose samples were collected every 20 minutes for a duration of 4 hours, both pre-dose and post-dose. Six samples from the pre-dose and post-dose collections were analyzed for norepinephrine. The remaining six samples from the pre-dose and post-dose collections were analyzed for both dopamine and serotonin. Samples were chilled to -80° C. immediately following collection. The samples were analyzed using liquid chromatography with electrochemical detection using conventional techniques. See, e.g., Huang, T., R. et al. (1994) New […] Microbore Columns for Liquid Chromatography. Current Separations 12(4): 191-195. […] Concentrations of each compound are expressed as % baseline.

[3] = tested on: carbonic anhydrase; settings: cited from earlier work
[4] = tested on: dopamine (DA) in medial prefrontal cortex; assay: Brain microdialysis: dopamine in mPFC; type: in vivo, rats; settings: 25 mg/kg zonisamide
Description: as §1

[5] = tested on: norepinephrine (NE) in hypothalamus; assay: Brain microdialysis: norepinephrine in hypothalamus; type: in vivo, rats; settings: 25 mg/kg zonisamide
Description: as §1

[6] = tested on: psychotic patients (bipolar manic state, schizoaffective manic state, schizophrenic excitement); settings: cited from earlier work; for patients showing remarkable global improvement: addition of zonisamide
[7] = tested on: norepinephrine (NE) in medial prefrontal cortex; assay: Brain microdialysis: norepinephrine in mPFC; type: in vivo, rats; settings: 25 mg/kg zonisamide
Description: as §1

[8] = tested on: dopamine (DA) in hypothalamus; assay: Brain microdialysis: dopamine in hypothalamus; type: in vivo, rats; settings: 25 mg/kg zonisamide
Description: as §1

[9] = tested on: serotonin (5HT) in medial prefrontal cortex; assay: Brain microdialysis: serotonin in mPFC; type: in vivo, rats; settings: 25 mg/kg zonisamide
Description: as §1

Structure (SMILES): NS(=O)(=O)Cc1noc2ccccc12 [zonisamide]
- weight loss [1]: significant weight loss
- Serotonin concentrations in hypothalamus ([2]; 3 HOUR AVE): 96.664 % baseline and 96.6637 % baseline
- Serotonin concentrations in hypothalamus ([2]; 40 min post dose): 139.708 % baseline
- Serotonin concentrations in hypothalamus ([2]; 80 min post dose): 88.171 % baseline
- Serotonin concentrations in hypothalamus ([2]; 120 min post dose): 87.586 % baseline
- Serotonin concentrations in hypothalamus ([2]; 160 min post dose): 64.925 % baseline
- Serotonin concentrations in hypothalamus ([2]; 200 min post dose): 98.920 % baseline
- Serotonin concentrations in hypothalamus ([2]; 240 min post dose (Table 7)): 100.672 % baseline
- Serotonin concentrations in hypothalamus ([2]; +220 min post dose): 100.672 % baseline
- Serotonin concentrations in hypothalamus ([2]; -20 min pre dose): 133.061 % baseline
- Serotonin concentrations in hypothalamus ([2]; -60 min pre dose): 79.388 % baseline
- Serotonin concentrations in hypothalamus ([2]; -100 min pre dose): 87.552 % baseline
- inhibitory effect on carbonic anhydrase [3]: weak inhibitory effect
- Dopamine concentrations in mPFC ([4]; 3 HOUR AVE): 117.183 % baseline
- Dopamine concentrations in mPFC ([4]; 40 min post dose): 166.688 % baseline
- Dopamine concentrations in mPFC ([4]; 80 min post dose): 86.224 % baseline
- Dopamine concentrations in mPFC ([4]; 120 min post dose): 111.764 % baseline
- Dopamine concentrations in mPFC ([4]; 160 min post dose): 109.627 % baseline
- Dopamine concentrations in mPFC ([4]; 200 min post dose): 94.060 % baseline
- Dopamine concentrations in mPFC ([4]; 240 min post dose): 134.732 % baseline
- Dopamine concentrations in mPFC ([4]; -20 min pre dose): 98.672 % baseline
- Dopamine concentrations in mPFC ([4]; -60 min pre dose): 87.652 % baseline
- Dopamine concentrations in mPFC ([4]; -100 min pre dose): 113.677 % baseline
- Norepinephrine concentrations in hypothalamus ([5]; 3 HOUR AVE): 124.221 % baseline and 124.272 % baseline
- Norepinephrine concentrations in hypothalamus ([5]; 20 min post dose): 194.380 % baseline
- Norepinephrine concentrations in hypothalamus ([5]; 60 min post dose): 151.267 % baseline
- Norepinephrine concentrations in hypothalamus ([5]; 100 min post dose): 101.287 % baseline
- Norepinephrine concentrations in hypothalamus ([5]; 140 min post dose): 99.489 % baseline
- Norepinephrine concentrations in hypothalamus ([5]; 180 min post dose): 102.237 % baseline
- Norepinephrine concentrations in hypothalamus ([5]; 220 min post dose): 91.722 % baseline
- Norepinephrine concentrations in hypothalamus ([5]; -40 min pre dose): 111.356 % baseline
- Norepinephrine concentrations in hypothalamus ([5]; -80 min pre dose): 88.184 % baseline
- Norepinephrine concentrations in hypothalamus ([5]; -120 min pre dose): 100.460 % baseline
- patients showing remarkable global improvement ([6]; all the patients (24)): Approximately 25%
- patients with more than moderate global improvement ([6]; all the patients (24)): Approximately 71%
- patients with more than moderate global improvement ([6]; bipolar group): ~80%
- patients showing remarkable global improvement ([6]; bipolar manic patients): ~33%
- Norepinephrine concentrations in mPFC ([7]; 3 HOUR AVE): 114.112 % baseline and 114.142 % baseline
- Norepinephrine concentrations in mPFC ([7]; 20 min post dose): 164.376 % baseline
- Norepinephrine concentrations in mPFC ([7]; 60 min post dose): 102.033 % baseline
- Norepinephrine concentrations in mPFC ([7]; 100 min post dose): 105.920 % baseline
- Norepinephrine concentrations in mPFC ([7]; 140 min post dose): 102.114 % baseline
- Norepinephrine concentrations in mPFC ([7]; 180 min post dose): 115.233 % baseline
- Norepinephrine concentrations in mPFC ([7]; 220 min post dose): 95.176 % baseline
- Norepinephrine concentrations in mPFC ([7]; -40 min pre dose): 101.451 % baseline
- Norepinephrine concentrations in mPFC ([7]; -80 min pre dose): 106.249 % baseline
- Norepinephrine concentrations in mPFC ([7]; -120 min pre dose): 92.300 % baseline
- Dopamine concentrations in hypothalamus ([8]; 3 HOUR AVE): 104.3854 % baseline and 105.438 % baseline
- Dopamine concentrations in hypothalamus ([8]; 40 min post dose): 121.635 % baseline
- Dopamine concentrations in hypothalamus ([8]; 80 min post dose): 72.946 % baseline
- Dopamine concentrations in hypothalamus ([8]; 120 min post dose): 91.707 % baseline
- Dopamine concentrations in hypothalamus ([8]; 160 min post dose): 66.181 % baseline
- Dopamine concentrations in hypothalamus ([8]; 200 min post dose): 143.010 % baseline
- Dopamine concentrations in hypothalamus ([8]; 240 min post dose): 123.012 % baseline
- Dopamine concentrations in hypothalamus ([8]; -20 min pre dose): 142.394 % baseline
- Dopamine concentrations in hypothalamus ([8]; -60 min pre dose): 56.252 % baseline
- Dopamine concentrations in hypothalamus ([8]; -100 min pre dose): 101.354 % baseline
- Serotonin concentrations in mPFC ([9]; 3 HOUR AVE): 77.954 % baseline and 77.9543 % baseline
- Serotonin concentrations in mPFC ([9]; 40 min post dose): 96.932 % baseline
- Serotonin concentrations in mPFC ([9]; 80 min post dose): 74.461 % baseline
- Serotonin concentrations in mPFC ([9]; 120 min post dose): 60.557 % baseline
- Serotonin concentrations in mPFC ([9]; 160 min post dose): 82.729 % baseline
- Serotonin concentrations in mPFC ([9]; 200 min post dose): 89.529 % baseline
- Serotonin concentrations in mPFC ([9]; 240 min post dose): 63.518 % baseline
- Serotonin concentrations in mPFC ([9]; -20 min pre dose): 107.652 % baseline
- Serotonin concentrations in mPFC ([9]; -60 min pre dose): 119.648 % baseline
- Serotonin concentrations in mPFC ([9]; -100 min pre dose): 72.700 % baseline
